{"source": "patent US11401278B2", "about": "“Macrocyclic indole derivatives” (The Broad Institute, Inc., priority 2017, dated 2022)", "molecular_target": "BCL-XL (Homo sapiens (Human), UniProt Q07817)", "sequence (Q07817 other isoform, or with tags, fused parts or gaps)": "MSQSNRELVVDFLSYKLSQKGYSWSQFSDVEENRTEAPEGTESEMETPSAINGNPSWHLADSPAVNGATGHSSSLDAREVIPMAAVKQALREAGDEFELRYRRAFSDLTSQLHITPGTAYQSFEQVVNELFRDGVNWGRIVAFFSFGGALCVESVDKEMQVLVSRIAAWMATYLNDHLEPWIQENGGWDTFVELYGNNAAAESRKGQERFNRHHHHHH", "assay": "Protein-protein interaction assay BCL-XL/Bad BH3 peptide (BCL-XL assay, TR-FRET)", "assay_type": "binding", "settings": "His-BCL-XL / Bad BH3 peptide, median", "method": "Assay 2 Protein-Protein Interaction Assay: BCL-XL/Bad BH3 Peptide (BCL-XL Assay)\nThe dose-dependent inhibition by the compounds described in this invention of the interaction between BCL-XL and the BH3 domain of Bad (both human) was determined using a steady state binding competition assay with time-resolved fluorescence energy transfer (TR-FRET) readout. For that purpose BCL-XL (amino acids 1-212, C-terminal fused to a hexahistidine (6×His) tag (SEQ ID 3) and a synthetic Bad BH3-derived peptide of sequence Biotin-PEG2-PEG2-NLWAAQRYGRELRR-Nle-SDEFVDSFKK-amide (SEQ ID 4) served as protein receptor and tracer ligand respectively. The recombinant BCL-XL protein (expressed in E. coli) was purchased from BPS Bioscience (San Diego, Calif., USA). The Bad BH3-derived peptide can be obtained from e.g. Biosyntan (Berlin, Germany).\nIn the assay 11 different concentrations of each compound (0.1 nM, 0.33 nM, 1.1 nM, 3.8 nM, 13 nM, 44 nM, 0.15 μM, 0.51 μM, 1.7 μM, 5.9 μM and 20 μM) were typically measured as duplicates in the same microtiter plate. For that, 100-fold concentrated DMSO solutions were prepared by serial dilutions (1:3.4) of a 2 mM stock solution in a clear, 384-well microtiter plate (Greiner Bio-One, Frickenhausen, Germany). From there, 50 nl were transferred in a dark test plate (Greiner Bio-One, Frickenhausen, Germany). The assay was initiated by addition of 2 μl of a 2.5-fold concentrated His-BCL-XL solution (usually for a 1 nM end concentration in 5 μl reaction volume) in aqueous assay buffer [50 mM Tris/HCl pH 7, 100 mM sodium chloride (NaCl), 50 mM potassium fluoride (KF), 0.005% Tween-20, 2 mM DTT, 0.1% bovine gamma globulin (BGG)] to the compounds in the assay plate. This was followed by a 10-minute incubation step at 22° C. for pre-equilibration of the putative complex between His-BCL-XL and the compounds. After that, 3 μl of a 1.67-fold concentrated solution (in assay buffer) consisting of Bad BH3-derived peptide (1 nM end concentration) and TR-FRET detection reagents [1.67 nM anti-His-Eu cryptate and 1.67 nM streptavidin-XL665 (both from Cisbio Bioassays, Codolet, France)], were added.\nThe mixture was incubated in the dark for one hour at 22° C. and then overnight at 4° C. The formation of BCL-XL/Bad complexes was determined by measuring the resonance energy transfer of the anti-His- Eu-cryptate antibody to the streptavidin-XL665 present in the reaction. For that purpose, the fluorescence emission at 620 nm and 665 nm after excitation at 330-350 nm was measured in a TR-FRET measuring instrument, for instance a Rubystar or a Pherastar (both from BMG Lab Technologies, Offenburg, Germany) or a Viewlux (Perkin-Elmer). The ratio of the emission at 665 nm and at 622 nm was used as indicator of the amount of BCL-XL/Bad complexes present.\nThe resulting data (ratio) were normalized, taking 0% inhibition as the mean value of control measurements (usually 32 data points) where all reagents were included. In this case 50 nl DMSO were used instead of compounds. A 100% inhibition corresponded to the mean value of control measurements (usually 32 data points) where all reagents except BCL-XL were included. IC50 values were determined by regression analysis based on a 4 parameter equation (minimum, maximum, IC50, Hill; Y=Max+(Min−Max)/(1+(X/IC50)^HiII) using the Screener Software (Genedata).", "note": "Where a name gives a salt, the structure may show the parent alone.", "data": [{"smiles": "Cc1c2c(nn1C)CN(CCN1CCOCC1)S(=O)(=O)CCCn1c(C(=O)O)c(CCCOc3cccc4ccccc34)c3cccc-2c31", "note": "(racemic) [Example 1, (rac)-2,3-Dimethyl-14-[2-(morpholin-4-yl)ethyl]-7-{3-[(naphthalen-1-yl)oxy]propyl}-13,13-dioxo-10,11,12,13,14,15-hexahydro-2H-13λ^6-pyrazolo[3′,4′:4,5][1,2,8]thiadiazacycloundecino-[6,7,8-hi]indole-8-carboxylic acid]", "values": [{"measurement": "IC50", "value": "> 20", "unit": "µM"}]}, {"smiles": "Cc1c2c(nn1C)CN(C)S(=O)(=O)CCCn1c(C(=O)O)c(CCCOc3cccc4ccccc34)c3ccc(Cl)c-2c31", "note": "(racemic) [Example 4, (rac)-4-Chloro-2,3,14-trimethyl-7-{3-[(naphthalen-1-yl)oxy]propyl}-13,13-dioxo-10,11,12,13,14,15-hexahydro-2H-13λ^6-pyrazolo[3′,4′:4,5][1,2,8]thiadiazacycloundecino-[6,7,8-hi]indole-8-carboxylic acid]", "values": [{"measurement": "IC50", "value": "> 20", "unit": "µM"}]}, {"smiles": "CCc1c2c(nn1C)CN(C)S(=O)(=O)CCCn1c(C(=O)O)c(CCCOc3cccc4cc(F)ccc34)c3ccc(F)c-2c31", "note": "(racemic) [Example 7, (rac)-12-Ethyl-13-fluoro-1-(3-((6-fluoronaphthalen-1-yl)oxy)propyl)-8,11-dimethyl-5,6,9,11-tetrahydro-4H,8H-pyrazolo[3′,4′:4,5][1]thia[2,8]diazacycloundecino[6,7,8-hi]indole-2-carboxylic acid 7,7-dioxide]", "values": [{"measurement": "IC50", "value": "> 20", "unit": "µM"}]}, {"smiles": "CCc1c2c(nn1C)CN(CCCN1CCCC1=O)S(=O)(=O)CCCn1c(C(=O)O)c(CCCOc3cccc4ccccc34)c3cccc-2c31", "note": "(racemic) [Example 13, (rac)-12-Ethyl-11-methyl-1-(3-(naphthalen-1-yloxy)propyl)-8-(3-(2-oxopyrrolidin-1-yl)propyl)-5,6,9,11-tetrahydro-4H,8H-pyrazolo[3′,4′:4,5][1]thia[2,8]diazacycloundecino[6,7,8-hi]indole-2-carboxylic acid 7,7-dioxide]", "values": [{"measurement": "IC50", "value": "> 20", "unit": "µM"}]}, {"smiles": "CCc1c2c(nn1C)CN(CCN1CCCCC1)S(=O)(=O)CCCn1c(C(=O)O)c(CCCOc3cccc4ccccc34)c3cccc-2c31", "note": "(racemic) [Example 14, (rac)-12-Ethyl-11-methyl-1-(3-(naphthalen-1-yloxy)propyl)-8-(2-(piperidin-1-yl)ethyl)-4,5,6,8,9,11-hexahydropyrazolo[3′,4′:4,5][1,2,8]thiadiazacycloundecino[6,7,8-hi]indole-2-carboxylic acid 7,7-dioxide 2,2,2-trifluoroacetic acid salt]", "values": [{"measurement": "IC50", "value": "> 20", "unit": "µM"}]}, {"smiles": "CCc1c2c(nn1C)CN(CCCN1CCOCC1)S(=O)(=O)CCCn1c(C(=O)O)c(CCCOc3cccc4ccccc34)c3cccc-2c31", "note": "(racemic) [Example 15, (rac)-12-Ethyl-11-methyl-8-(3-morpholinopropyl)-1-(3-(naphthalen-1-yloxy)propyl)-4,5,6,8,9,11-hexahydropyrazolo[3′,4′:4,5][1,2,8]thiadiazacycloundecino[6,7,8-hi]indole-2-carboxylic acid 7,7-dioxide 2,2,2-trifluoroacetic acid salt]", "values": [{"measurement": "IC50", "value": "> 20", "unit": "µM"}]}, {"smiles": "CCc1c2c(nn1C)CN(CCCN1CCCC1)S(=O)(=O)CCCn1c(C(=O)O)c(CCCOc3cccc4ccccc34)c3cccc-2c31", "note": "(racemic) [Example 16, (rac)-12-Ethyl-11-methyl-1-(3-(naphthalen-1-yloxy)propyl)-8-(3-(pyrrolidin-1-yl)propyl)-5,6,9,11-tetrahydro-4H,8H-pyrazolo[3′,4′:4,5][1]thia[2,8]diazacycloundecino[6,7,8-hi]indole-2-carboxylic acid 7,7-dioxide]", "values": [{"measurement": "IC50", "value": "> 20", "unit": "µM"}]}, {"smiles": "CCc1c2c(nn1C)CNS(=O)(=O)CCCn1c(C(=O)O)c(CCCOc3cccc4ccccc34)c3cccc-2c31", "note": "(racemic) [Example 17, (rac)-12-Ethyl-11-methyl-1-(3-(naphthalen-1-yloxy)propyl)-4,5,6,8,9,11-hexahydropyrazolo[3′,4′:4,5][1,2,8]thiadiazacycloundecino[6,7,8-hi]indole-2-carboxylic acid 7,7-dioxide]", "values": [{"measurement": "IC50", "value": "> 20", "unit": "µM"}]}, {"smiles": "CCc1c2c(nn1C)C(C)N(C)S(=O)(=O)CCCn1c(C(=O)O)c(CCCOc3cccc4ccccc34)c3cccc-2c31", "note": "(racemic) [Example 18, 12-Ethyl-8,9,11-trimethyl-1-(3-(naphthalen-1-yloxy)propyl)-5,6,9,11-tetrahydro-4H,8H-pyrazolo[3′,4′:4,5][1]thia[2,8]diazacycloundecino[6,7,8-hi]indole-2-carboxylic acid 7,7-dioxide (Mixture of Stereoisomers)]", "values": [{"measurement": "IC50", "value": "> 20", "unit": "µM"}]}, {"smiles": "Cc1c2c(nn1C)CN(C)S(=O)(=O)CCCn1c(C(=O)O)c(CCCOc3cccc4cc(F)ccc34)c3ccc(F)c-2c31", "note": "(racemic) [Example 25, (rac)-13-Fluoro-1-(3-((6-fluoronaphthalen-1-yl)oxy)propyl)-8,11,12-trimethyl-5,6,9,11-tetrahydro-4H,8H-pyrazolo[3′,4′:4,5][1]thia[2,8]diazacycloundecino[6,7,8-hi]indole-2-carboxylic acid 7,7-dioxide]", "values": [{"measurement": "IC50", "value": "> 20", "unit": "µM"}]}, {"smiles": "Cc1c2c(nn1C)CN(C)S(=O)(=O)CCCn1c(C(=O)O)c(CCCOc3cccc4ccccc34)c3ccc(F)c-2c31", "note": "(racemic) [Example 26, (rac)-13-Fluoro-8,11,12-trimethyl-1-(3-(naphthalen-1-yloxy)propyl)-5,6,9,11-tetrahydro-4H,8H-pyrazolo[3′,4′:4,5][1]thia[2,8]diazacycloundecino[6,7,8-hi]indole-2-carboxylic acid 7,7-dioxide]", "values": [{"measurement": "IC50", "value": "> 20", "unit": "µM"}]}, {"smiles": "Cc1c2c(nn1C)CN(C)S(=O)(=O)CCCn1c(C(=O)O)c(CCCOc3cccc4c3CCC4)c3ccc(F)c-2c31", "note": "(racemic) [Example 27, (rac)-1-(3-((2,3-Dihydro-1H-inden-4-yl)oxy)propyl)-13-fluoro-8,11,12-trimethyl-5,6,9,11-tetrahydro-4H,8H-pyrazolo[3′,4′:4,5][1]thia[2,8]diazacycloundecino[6,7,8-hi]indole-2-carboxylic acid 7,7-dioxide]", "values": [{"measurement": "IC50", "value": "> 20", "unit": "µM"}]}, {"smiles": "Cc1cc(OCCCc2c(C(=O)O)n3c4c(c(F)ccc24)-c2c(nn(C)c2C)CN(C)S(=O)(=O)CCC3)cc(C)c1Cl", "note": "(racemic) [Example 28, (rac)-1-(3-(4-Chloro-3,5-dimethylphenoxy)propyl)-13-fluoro-8,11,12-trimethyl-5,6,9,11-tetrahydro-4H,8H-pyrazolo[3′,4′:4,5][1]thia[2,8]diazacycloundecino[6,7,8-hi]indole-2-carboxylic acid 7,7-dioxide]", "values": [{"measurement": "IC50", "value": "> 20", "unit": "µM"}]}, {"smiles": "Cc1c2c(nn1C)CN(C)S(=O)(=O)CCCn1c(C(=O)O)c(CCCOc3cccc4c3CCCC4)c3ccc(F)c-2c31", "note": "(racemic) [Example 29, (rac)-13-Fluoro-8,11,12-trimethyl-1-(3-((5,6,7,8-tetrahydronaphthalen-1-yl)oxy)propyl)-5,6,9,11-tetrahydro-4H,8H-pyrazolo[3′,4′:4,5][1]thia[2,8]diazacycloundecino[6,7,8-hi]indole-2-carboxylic acid 7,7-dioxide]", "values": [{"measurement": "IC50", "value": "> 20", "unit": "µM"}]}, {"smiles": "CCc1c2c(nn1C)CN(C)S(=O)(=O)CCCn1c(C(=O)O)c(CCCOc3cccc4ccccc34)c3ccc(F)c-2c31", "note": "(racemic) [Example 31, (rac)-12-Ethyl-13-fluoro-8,11-dimethyl-1-(3-(naphthalen-1-yloxy)propyl)-5,6,9,11-tetrahydro-4H,8H-pyrazolo[3′,4′:4,5][1]thia[2,8]diazacycloundecino[6,7,8-hi]indole-2-carboxylic acid 7,7-dioxide]", "values": [{"measurement": "IC50", "value": "> 20", "unit": "µM"}]}, {"smiles": "CCc1c2c(nn1C)CN(C)S(=O)(=O)CCCn1c(C(=O)O)c(CCCOc3cccc4c3CCC4)c3ccc(F)c-2c31", "note": "(racemic) [Example 32, (rac)-1-(3-((2,3-Dihydro-1H-inden-4-yl)oxy)propyl)-12-ethyl-13-fluoro-8,11-dimethyl-5,6,9,11-tetrahydro-4H,8H-pyrazolo[3′,4′:4,5][1]thia[2,8]diazacycloundecino[6,7,8-hi]indole-2-carboxylic acid 7,7-dioxide]", "values": [{"measurement": "IC50", "value": "> 20", "unit": "µM"}]}]}
